Data published in ChEMBL document CHEMBL4024727, “Synthesis and antimycobacterial screening of new thiazolyl-oxazole derivatives” (Eur J Med Chem, 2017).
In brackets after ≈: the same amount, converted by molar mass.

System: Mycobacterium tuberculosis
Assay: Antitubercular activity against Mycobacterium bovis BCG ATCC 35743 dormant stage by nitrate reductase based two-fold dilution assay
Assay type: functional
Settings: BCG str. ATCC 35743

Row | SMILES | IC50 | MIC90
1 | Cc1nc(-c2ccccc2)oc1-c1csc(Cc2ccc(Cl)cc2)n1 | 320 nM | 5.8 µM (≈ 2.13 µg/mL)

System: Mycobacterium tuberculosis
Assay: Growth inhibition of Mycobacterium bovis BCG ATCC 35743 at 10 ug/ml by nitrate reductase based two-fold dilution assay relative to control
Assay type: functional
Settings: BCG str. ATCC 35743, read-out: GI

Row | SMILES | inhibition of growth at 10 µg/mL
2 | Cc1nc(-c2ccccc2)oc1-c1csc(Cc2ccc(Cl)cc2)n1 | 97%

System: HeLa
Assay: (§1) Growth inhibition of human HeLa cells by MTT assay
Assay type: cell-based
Settings: hela

Row | SMILES | GI90
3 | Cc1nc(-c2ccccc2)oc1-c1csc(Cc2ccc(Cl)cc2)n1 | > 250 µg/mL

System: not listed separately
Assay: as §1
Assay type: cell-based
Settings: HeLa cells

Row | SMILES | GI50
4 | Cc1nc(-c2ccccc2)oc1-c1csc(Cc2ccc(Cl)cc2)n1 | 124 µg/mL (≈ 339 µM)

System: not listed separately
Assay: Selectivity index, ratio of GI50 for human HeLa cells to MIC for Mycobacterium bovis BCG ATCC 35743 dormant stage
Assay type: toxicity, cell-based
Settings: read-out: Selectivity Index

Row | SMILES | selectivity ratio
5 | Cc1nc(-c2ccccc2)oc1-c1csc(Cc2ccc(Cl)cc2)n1 | 58

System: Mycobacterium tuberculosis
Assay: Growth inhibition of Mycobacterium bovis BCG ATCC 35743 at 1 ug/ml by nitrate reductase based two-fold dilution assay relative to control
Assay type: functional
Settings: BCG str. ATCC 35743, read-out: GI

Row | SMILES | inhibition of growth at 1 µg/mL
6 | Cc1nc(-c2ccccc2)oc1-c1csc(Cc2ccc(Cl)cc2)n1 | 96%

System: Escherichia coli
Assay: Growth inhibition of Escherichia coli NCIM 2576 at 1 ug/ml measured after 8 hrs relative to control
Assay type: functional
Settings: NCIM 2576, 8 h, read-out: GI

Row | SMILES | inhibition of growth at 1 µg/mL
7 | Cc1nc(-c2ccccc2)oc1-c1csc(Cc2ccc(Cl)cc2)n1 | 78.7%

System: Escherichia coli
Assay: Growth inhibition of Escherichia coli NCIM 2576 at 10 ug/ml measured after 8 hrs relative to control
Assay type: functional
Settings: NCIM 2576, 8 h, read-out: GI

Row | SMILES | inhibition of growth at 10 µg/mL
8 | Cc1nc(-c2ccccc2)oc1-c1csc(Cc2ccc(Cl)cc2)n1 | 84.5%

System: not listed separately
Assay: Selectivity index, ratio of GI50 for human HeLa cells to MIC for Mycobacterium tuberculosis H37Ra ATCC 25177 dormant stage
Assay type: toxicity, cell-based
Settings: read-out: Selectivity Index

Row | SMILES | selectivity ratio
9 | Cc1nc(-c2ccccc2)oc1-c1csc(Cc2ccc(Cl)cc2)n1 | 47

System: Mycobacterium tuberculosis
Assay: Growth inhibition of Mycobacterium tuberculosis H37Ra ATCC 25177 at 3 ug/ml by XTT dye based two-fold dilution method relative to control
Assay type: functional
Settings: read-out: GI

Row | SMILES | inhibition of growth at 3 µg/mL
10 | Cc1nc(-c2ccccc2)oc1-c1csc(Cc2ccc(Cl)cc2)n1 | 92%

System: not listed separately
Assay: Selectivity index, ratio of GI50 for human A549 cells to MIC for Mycobacterium bovis BCG ATCC 35743 dormant stage
Assay type: toxicity
Settings: read-out: Selectivity Index

Row | SMILES | selectivity ratio
11 | Cc1nc(-c2ccccc2)oc1-c1csc(Cc2ccc(Cl)cc2)n1 | 117

System: not listed separately
Assay: Selectivity index, ratio of GI50 for human PANC1 cells to MIC for Mycobacterium tuberculosis H37Ra ATCC 25177 dormant stage
Assay type: toxicity
Settings: PANC-1 cells, read-out: Selectivity Index

Row | SMILES | selectivity ratio
12 | Cc1nc(-c2ccccc2)oc1-c1csc(Cc2ccc(Cl)cc2)n1 | 95

System: Pseudomonas fluorescens
Assay: Antibacterial activity against Pseudomonas fluorescens NCIM 2059 measured after 8 hrs
Assay type: functional
Settings: NCIM 2059, 8 h

Row | SMILES | MIC
13 | Cc1nc(-c2ccccc2)oc1-c1csc(Cc2ccc(Cl)cc2)n1 | 18 µg/mL (≈ 49.1 µM)

System: Mycobacterium tuberculosis
Assay: Growth inhibition of Mycobacterium bovis BCG ATCC 35743 at 30 ug/ml by nitrate reductase based two-fold dilution assay relative to control
Assay type: functional
Settings: BCG str. ATCC 35743, read-out: GI

Row | SMILES | inhibition of growth at 30 µg/mL
14 | Cc1nc(-c2ccccc2)oc1-c1csc(Cc2ccc(Cl)cc2)n1 | 97%

System: Bacillus subtilis
Assay: Growth inhibition of Bacillus subtilis NCIM 2162 at 30 ug/ml measured after 12 hrs relative to control
Assay type: functional
Settings: NCIM 2162, 12 h, read-out: GI

Row | SMILES | inhibition of growth at 30 µg/mL
15 | Cc1nc(-c2ccccc2)oc1-c1csc(Cc2ccc(Cl)cc2)n1 | 90.4%

System: not listed separately
Assay: Selectivity index, ratio of GI50 for human A549 cells to MIC for Mycobacterium tuberculosis H37Ra ATCC 25177 dormant stage
Assay type: toxicity
Settings: read-out: Selectivity Index

Row | SMILES | selectivity ratio
16 | Cc1nc(-c2ccccc2)oc1-c1csc(Cc2ccc(Cl)cc2)n1 | 95

System: Staphylococcus aureus
Assay: Growth inhibition of Staphylococcus aureus NCIM 2602 at 30 ug/ml measured after 12 hrs relative to control
Assay type: functional
Settings: NCIM 2602, 12 h, read-out: GI

Row | SMILES | inhibition of growth at 30 µg/mL
17 | Cc1nc(-c2ccccc2)oc1-c1csc(Cc2ccc(Cl)cc2)n1 | 92.4%

System: Bacillus subtilis
Assay: Growth inhibition of Bacillus subtilis NCIM 2162 at 10 ug/ml measured after 12 hrs relative to control
Assay type: functional
Settings: NCIM 2162, 12 h, read-out: GI

Row | SMILES | inhibition of growth at 10 µg/mL
18 | Cc1nc(-c2ccccc2)oc1-c1csc(Cc2ccc(Cl)cc2)n1 | 85.2%

System: Bacillus subtilis
Assay: Growth inhibition of Bacillus subtilis NCIM 2162 at 1 ug/ml measured after 12 hrs relative to control
Assay type: functional
Settings: NCIM 2162, 12 h, read-out: GI

Row | SMILES | inhibition of growth at 1 µg/mL
19 | Cc1nc(-c2ccccc2)oc1-c1csc(Cc2ccc(Cl)cc2)n1 | 74.2%

System: Escherichia coli
Assay: Antibacterial activity against Escherichia coli NCIM 2576 measured after 8 hrs
Assay type: functional
Settings: NCIM 2576, 8 h

Row | SMILES | MIC
20 | Cc1nc(-c2ccccc2)oc1-c1csc(Cc2ccc(Cl)cc2)n1 | 18.3 µg/mL (≈ 49.9 µM)

System: Mycobacterium tuberculosis
Assay: Antitubercular activity against Mycobacterium tuberculosis H37Ra ATCC 25177 dormant stage by XTT dye based two-fold dilution method
Assay type: functional
Settings: not given

Row | SMILES | IC50 | MIC90
21 | Cc1nc(-c2ccccc2)oc1-c1csc(Cc2ccc(Cl)cc2)n1 | 350 nM | 7.19 µM (≈ 2.64 µg/mL)

System: Pseudomonas fluorescens
Assay: Growth inhibition of Pseudomonas fluorescens NCIM 2059 at 30 ug/ml measured after 8 hrs relative to control
Assay type: functional
Settings: NCIM 2059, 8 h, read-out: GI

Row | SMILES | inhibition of growth at 30 µg/mL
22 | Cc1nc(-c2ccccc2)oc1-c1csc(Cc2ccc(Cl)cc2)n1 | 95%

System: not listed separately
Assay: (§2) Growth inhibition of human A549 cells by MTT assay
Assay type: cell-based
Settings: A549 cells

Row | SMILES | GI50
23 | Cc1nc(-c2ccccc2)oc1-c1csc(Cc2ccc(Cl)cc2)n1 | > 250 µg/mL

System: A549
Assay: as §2
Assay type: cell-based
Settings: a549

Row | SMILES | GI90
24 | Cc1nc(-c2ccccc2)oc1-c1csc(Cc2ccc(Cl)cc2)n1 | > 250 µg/mL

System: Staphylococcus aureus
Assay: Antibacterial activity against Staphylococcus aureus NCIM 2602 measured after 12 hrs
Assay type: functional
Settings: NCIM 2602, 12 h

Row | SMILES | MIC
25 | Cc1nc(-c2ccccc2)oc1-c1csc(Cc2ccc(Cl)cc2)n1 | 22.7 µg/mL (≈ 61.9 µM)

System: PANC-1
Assay: (§3) Growth inhibition of human PANC1 cells by MTT assay
Assay type: cell-based
Settings: panc-1

Row | SMILES | GI90
26 | Cc1nc(-c2ccccc2)oc1-c1csc(Cc2ccc(Cl)cc2)n1 | > 250 µg/mL

System: not listed separately
Assay: as §3
Assay type: cell-based, PANC-1
Settings: PANC-1 cells

Row | SMILES | GI50
27 | Cc1nc(-c2ccccc2)oc1-c1csc(Cc2ccc(Cl)cc2)n1 | > 250 µg/mL

System: Mycobacterium tuberculosis
Assay: Growth inhibition of Mycobacterium tuberculosis H37Ra ATCC 25177 at 10 ug/ml by XTT dye based two-fold dilution method relative to control
Assay type: functional
Settings: read-out: GI

Row | SMILES | inhibition of growth at 10 µg/mL
28 | Cc1nc(-c2ccccc2)oc1-c1csc(Cc2ccc(Cl)cc2)n1 | 93%

System: Pseudomonas fluorescens
Assay: Growth inhibition of Pseudomonas fluorescens NCIM 2059 at 10 ug/ml measured after 8 hrs relative to control
Assay type: functional
Settings: NCIM 2059, 8 h, read-out: GI

Row | SMILES | inhibition of growth at 10 µg/mL
29 | Cc1nc(-c2ccccc2)oc1-c1csc(Cc2ccc(Cl)cc2)n1 | 87.3%

System: Staphylococcus aureus
Assay: Growth inhibition of Staphylococcus aureus NCIM 2602 at 1 ug/ml measured after 12 hrs relative to control
Assay type: functional
Settings: NCIM 2602, 12 h, read-out: GI

Row | SMILES | inhibition of growth at 1 µg/mL
30 | Cc1nc(-c2ccccc2)oc1-c1csc(Cc2ccc(Cl)cc2)n1 | 79.1%

System: Escherichia coli
Assay: Growth inhibition of Escherichia coli NCIM 2576 at 30 ug/ml measured after 8 hrs relative to control
Assay type: functional
Settings: NCIM 2576, 8 h, read-out: GI

Row | SMILES | inhibition of growth at 30 µg/mL
31 | Cc1nc(-c2ccccc2)oc1-c1csc(Cc2ccc(Cl)cc2)n1 | 97.9%

System: Staphylococcus aureus
Assay: Growth inhibition of Staphylococcus aureus NCIM 2602 at 10 ug/ml measured after 12 hrs relative to control
Assay type: functional
Settings: NCIM 2602, 12 h, read-out: GI

Row | SMILES | inhibition of growth at 10 µg/mL
32 | Cc1nc(-c2ccccc2)oc1-c1csc(Cc2ccc(Cl)cc2)n1 | 85.6%

System: Pseudomonas fluorescens
Assay: Growth inhibition of Pseudomonas fluorescens NCIM 2059 at 1 ug/ml measured after 8 hrs relative to control
Assay type: functional
Settings: NCIM 2059, 8 h, read-out: GI

Row | SMILES | inhibition of growth at 1 µg/mL
33 | Cc1nc(-c2ccccc2)oc1-c1csc(Cc2ccc(Cl)cc2)n1 | 81%

System: Bacillus subtilis
Assay: Antibacterial activity against Bacillus subtilis NCIM 2162 measured after 12 hrs
Assay type: functional
Settings: NCIM 2162, 12 h

Row | SMILES | MIC
34 | Cc1nc(-c2ccccc2)oc1-c1csc(Cc2ccc(Cl)cc2)n1 | 27.6 µg/mL (≈ 75.2 µM)

System: Mycobacterium tuberculosis
Assay: Growth inhibition of Mycobacterium tuberculosis H37Ra ATCC 25177 at 30 ug/ml by XTT dye based two-fold dilution method relative to control
Assay type: functional
Settings: read-out: GI

Row | SMILES | inhibition of growth at 30 µg/mL
35 | Cc1nc(-c2ccccc2)oc1-c1csc(Cc2ccc(Cl)cc2)n1 | 98%

System: not listed separately
Assay: Selectivity index, ratio of GI50 for human PANC1 cells to MIC for Mycobacterium bovis BCG ATCC 35743 dormant stage
Assay type: toxicity
Settings: PANC-1 cells, read-out: Selectivity Index

Row | SMILES | selectivity ratio
36 | Cc1nc(-c2ccccc2)oc1-c1csc(Cc2ccc(Cl)cc2)n1 | 117
